Reference: PubChem BioAssay AID1199 (EPA DSSTox, 2008)
Calls of active or inactive are those of the source.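 The calls were made as follows: active = a tumour-causing dose and a tumour site recorded for mice in at least one sex group; inconclusive = only government mouse studies exist and were judged inadequate; inactive = mouse studies exist but none gave tumours.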

system: mouse carcinogenicity bioassay, TD50 from CPDB; assay: DSSTox (CPDBAS) Carcinogenic Potency Database Summary Mouse Bioassay Results; conditions: TD50_Mouse_Note: TD50 is harmonic mean of more than one positive test; TargetSites_Mouse_Female: adrenal gland; liver
From the text: The Carcinogenic Potency Database (CPDB) is a unique and widely used international resource of the results of over 6500 chronic, long-term animal cancer tests on over 1500 chemical substances. The CPDB provides easy access to the bioassay literature, with qualitative and quantitative analyses of both positive and negative experiments that have been published over the past 50 years in the general literature and by the National Cancer Institute/National Toxicology Program. The CPDB standardizes the diverse literature of cancer bioassays that vary widely in protocol, histopathological examination and nomenclature, and in the published author's choices of what information to provide in their papers. Results are reported in the CPDB for tests in rats, mice, hamsters, dogs, and nonhuman primates, and are based on the most positive result among all experiments for each sex-species. The DSSTox CPDBAS (all species) file incorporates data from the CPDB Summary Tables for the full list of over 1500 chemical substances tested in at least one species. Summary bioassay results for Mouse (TD50, tumor sites, male, female, both sexes) are provided in the CPDB Summary Tables and the DSSTox CPDBAS file for over 1000 chemical substances.
TD50 is a standardized quantitative measure of carcinogenic potency (analogous to an LD50) and is reported in the CPDB Summary Table for each species. Activity Score for actives is computed by mapping of LOG10 (1/TD50_Mouse_mmol) activity values spanning range [MIN, MAX] onto Integer 1-100 Activity Score range, where 100 is highest potency and 1 is lowest: Activity Score = 100 * INTEGER[(log10(1/Activity) - MIN)/(MAX […] MIN)]. If activity is reported but no TD50_Mouse_mmol value is computed, such as for a mixture, the Activity Score is assigned the activity value "50". […] Target sites are reported for each sex-species group with a positive result in the CPDB on the basis of a positive author's opinion for the particular site, using all results from both the general literature and NCI/NTP bioassays. If a chemical has two or more target sites listed, the results may be from different experiments, and a single site may be a target organ in more than one experiment, as well. Blank entry in TargetSites field indicates no results reported.

SMILES	Potency [mmol/kg/day]
ClCC(Cl)Cl	0.412
N=C1C=CC(=C(c2ccc(N)cc2)c2ccc(N)cc2)C=C1	0.159

same assay, conditions: TD50_Mouse_Note: TD50 is harmonic mean of more than one positive test; TargetSites_Mouse_Female: hematopoietic system; liver; vascular system

SMILES	Potency [mmol/kg/day]
FC(F)=C(F)F	0.719

same assay, conditions: TD50_Mouse_Note: TD50 is harmonic mean of more than one positive test; TargetSites_Mouse_Female: hematopoietic system; lung

SMILES	Potency [mmol/kg/day]
Cc1ncc([N+](=O)[O-])n1CCO	2.96

same assay, conditions: TD50_Mouse_Note: TD50 is harmonic mean of more than one positive test; TargetSites_Mouse_Female: liver

SMILES	Potency [mmol/kg/day]
CCCCOCCOCCOCc1cc2c(cc1CCC)OCO2	0.86
Cc1ccc(C)c(N)c1	3.97
ClC(Cl)C(Cl)Cl	0.228

same assay, conditions: TD50_Mouse_Note: TD50 is harmonic mean of more than one positive test; TargetSites_Mouse_Female: liver; lung; stomach

SMILES	Potency [mmol/kg/day]
Cn1c(N)nc2c3cccnc3ccc21	0.0989

same assay, conditions: TD50_Mouse_Note: TD50 is harmonic mean of more than one positive test; TargetSites_Mouse_Female: liver; stomach

SMILES	Potency [mmol/kg/day]
CC(=O)OCc1ccccc1	9.59

same assay, conditions: TD50_Mouse_Note: TD50 is harmonic mean of more than one positive test; TargetSites_Mouse_Female: liver; vascular system

SMILES	Potency [mmol/kg/day]
O=C1c2ccccc2CN2C(=O)c3ccccc3CN12	3.27
Nc1ccc2c(n1)[nH]c1ccccc12	0.272

same assay, conditions: TD50_Mouse_Note: TD50 is harmonic mean of more than one positive test; TargetSites_Mouse_Female: lung

SMILES	Potency [mmol/kg/day]
Clc1ccc(C(c2ccc(Cl)cc2)C(Cl)Cl)cc1	0.0959
NN	0.0914

same assay, conditions: TD50_Mouse_Note: TD50 is harmonic mean of more than one positive test; TargetSites_Mouse_Female: lung; nasal cavity; stomach

SMILES	Potency [mmol/kg/day]
ClCC(Br)CBr (stereo not drawn)	0.0115

same assay, conditions: TD50_Mouse_Note: TD50 is harmonic mean of more than one positive test; TargetSites_Mouse_Female: lung; vascular system

SMILES	Potency [mmol/kg/day]
CN(C)N	0.0659

same assay, conditions: TD50_Mouse_Note: TD50 is harmonic mean of more than one positive test; TargetSites_Mouse_Female: mammary gland

SMILES	Potency [mmol/kg/day]
COC1=CC(=O)C[C@@H](C)[C@]12Oc1c(Cl)c(OC)cc(OC)c1C2=O	0.0391

same assay, conditions: TD50_Mouse_Note: TD50 is harmonic mean of more than one positive test; TargetSites_Mouse_Female: mammary gland; ovary; pituitary gland; thyroid gland; uterus

SMILES	Potency [mmol/kg/day]
CC/C(=C(/CC)c1ccc(O)cc1)c1ccc(O)cc1	0.000146

same assay, conditions: TD50_Mouse_Note: TD50 is harmonic mean of more than one positive test; TargetSites_Mouse_Female: small intestine

SMILES	Potency [mmol/kg/day]
O=C1C2CC=CCC2C(=O)N1SC(Cl)(Cl)Cl (stereo not drawn)	7.02

same assay, conditions: TD50_Mouse_Note: TD50 is harmonic mean of more than one positive test; TargetSites_Mouse_Female: stomach

SMILES	Potency [mmol/kg/day]
Oc1ccccc1O	2.22

same assay, conditions: TD50_Mouse_Note: TD50 is harmonic mean of more than one positive test; greater than ten-fold variation among TD50 values for positive res; TargetSites_Mouse_Female: liver

SMILES	Potency [mmol/kg/day]
CCSCCC(N)C(=O)O (stereo not drawn)	0.437
ClC(Cl)Cl	0.93
Oc1ccc(O)cc1	2.04

same assay, conditions: TD50_Mouse_Note: TD50 is harmonic mean of more than one positive test; harmonic mean of TD50 includes a value for upper 99% confidence li; TargetSites_Mouse_Female: liver

SMILES	Potency [mmol/kg/day]
CCC1(c2ccccc2)C(=O)NC(=O)NC1=O	0.0317

same assay, conditions: TD50_Mouse_Note: no positive results; TargetSites_Mouse_Female: no positive results

SMILES	outcome
COc1ccc(CCN2CCC(Nc3nc4ccccc4n3Cc3ccc(F)cc3)CC2)cc1	inactive; no positive results
Cc1cc(O)c2c(c1)C(=O)c1cc(O)cc(O)c1C2=O	inactive; no positive results
CC(C)C[C@H]1C(=O)N2CCC[C@H]2[C@]2(O)O[C@](NC(=O)[C@@H]3C=C4c5cccc6[nH]c(Br)c(c56)C[C@H]4N(C)C3)(C(C)C)C(=O)N12	inactive; no positive results
CC(C)=CCC/C(C)=C/C=O	inactive; no positive results
Nc1cccc(N)c1	inactive; no positive results
COc1cc2c(c3oc(=O)c4c(c13)CCC4=O)C1C=COC1O2 (stereo not drawn)	inactive; no positive results
c1ccc(Nc2ccc3ccccc3c2)cc1	inactive; no positive results
O=[N+]([O-])/C=C/c1ccccc1	inactive; no positive results
O=C1CN=C(c2ccccc2)c2cc(Cl)ccc2N1CC1CC1	inactive; no positive results
c1ccc2n[nH]nc2c1	inactive; no positive results
CCCCOCCOCCOCc1cc2c(cc1CCC)OCO2	inactive; no positive results
Oc1ccc(-c2ccccc2)cc1	inactive; no positive results
FC(F)(Cl)Cl	inactive; no positive results
O=S(=O)([O-])[O-].[Cd+2]	inactive
CN(C)C(=S)[S][Bi]([S]C(=S)N(C)C)[S]C(=S)N(C)C	inactive; no positive results
Cc1cc(O)c(C(C)(C)C)cc1Sc1cc(C(C)(C)C)c(O)cc1C	inactive; no positive results
CCN=c1cc2oc3cc(NCC)c(C)cc3c(-c3ccccc3C(=O)OCC)c-2cc1C	inactive; no positive results
CC(=O)Nc1ccc(CC(=O)O)cc1	inactive; no positive results
Nc1nc(N)nc(-c2ccccc2)n1	inactive; no positive results
COc1cc(/C=C/C(=O)CC(=O)/C=C/c2ccc(O)c(OC)c2)ccc1O	inactive; no positive results
S=C([S-])NCCNC(=S)[S-].[Mn+2]	inactive; no positive results
FCC(F)(F)F	inactive; no positive results
c1ccc2cc(Nc3ccc(Nc4ccc5ccccc5c4)cc3)ccc2c1	inactive; no positive results
Oc1ccc(OCc2ccccc2)cc1	inactive; no positive results
O=C1CCC(=O)O1	inactive; no positive results
CCc1ccc(C(c2ccc(CC)cc2)C(Cl)Cl)cc1	inactive; no positive results

SMILES	outcome
O=S(O)S(=O)(=O)O	inactive; no positive results
NC(=O)Cc1cccc2ccccc12	inactive; no positive results
CCCCC(C)(O)C/C=C/[C@H]1[C@H](O)CC(=O)[C@@H]1CCCCCCC(=O)OC (stereo partly drawn)	inactive; no positive results
Nc1c(Cl)cc([N+](=O)[O-])cc1Cl	inactive; no positive results
Cc1ccc(/C(=C\CN2CCCC2)c2ccccn2)cc1	inactive; no positive results
C1N2CN3CN1CN(C2)C3	inactive; no positive results
c1ccc2c(c1)Oc1ccccc1O2	inactive; no positive results
Cc1cc(O)cc(C)c1N(C)C	inactive; no positive results
COC(=O)c1ccc(C(=O)OC)cc1	inactive; no positive results
Nc1cc([N+](=O)[O-])ccc1C(=O)O	inactive; no positive results
C[C@@H]1CCC[C@H](C)N1CCCC(O)(c1ccccc1)c1ccccn1 (stereo partly drawn)	inactive; no positive results
COc1cc(N)ccc1N=Nc1ccccc1	inactive; no positive results
CC(O)c1ccccc1 (stereo not drawn)	inactive; no positive results
OC[P+](CO)(CO)CO	inactive; no positive results
CCCCOC(=O)COc1ccc(Cl)cc1Cl	inactive; no positive results
Nc1cc([N+](=O)[O-])ccc1O	inactive; no positive results
O=S(=O)(c1ccc(Cl)cc1)c1ccc(Cl)cc1	inactive; no positive results
O=C(O)CN(CCN(CC(=O)O)CC(=O)O)CC(=O)O	inactive; no positive results
Nc1ccc(S(=O)(=O)c2ccc(N)cc2)cc1	inactive; no positive results
COC(C(=O)O)c1ccccc1 (stereo not drawn)	inactive; no positive results
CNC(=O)O/N=C(\SC)C(=O)N(C)C	inactive; no positive results
C=C(C)[C@H]1CC=C(C)CC1	inactive; no positive results
S=C(SSSSSSC(=S)N1CCCCC1)N1CCCCC1	inactive; no positive results
CC(Cl)Cl	inactive; no positive results
O=C(O)COc1ccc(Cl)cc1Cl	inactive; no positive results

same assay, conditions: TD50_Mouse_Note: positive test results only by intraperitoneal or intravenous injection; TD50 is harmonic mean of more than one positive; TargetSites_Mouse_Female: hematopoietic system; lung

SMILES	Potency [mmol/kg/day]
O[C@@H]([C@H](O)[C@@H](O)CBr)[C@@H](O)CBr	0.0484

same assay, conditions: TD50_Mouse_Note: positive test results only by intraperitoneal or intravenous injection; TargetSites_Mouse_Female: hematopoietic system

SMILES	Potency [mmol/kg/day]
O=P1(NCCCl)OCCCN1CCCl (stereo not drawn)	0.0194
CC1=C[C@H]2[C@@]3(O)[C@H](C)[C@@H](O)[C@]4(O)[C@H]([C@@H]3C=C(CO)C[C@]2(O)C1=O)C4(C)C	0.00606

same assay, conditions: TargetSites_Mouse_Female: hematopoietic system

SMILES	Potency [mmol/kg/day]
NNc1nc(-c2ccc([N+](=O)[O-])cc2)cs1	0.0449

same assay, conditions: TargetSites_Mouse_Female: hematopoietic system; vascular system

SMILES	Potency [mmol/kg/day]
Cn1cnc([N+](=O)[O-])c1Sc1ncnc2nc[nH]c12	0.0322

same assay, conditions: TargetSites_Mouse_Female: liver

SMILES	Potency [mmol/kg/day]
CN(C)c1ccc(Cc2ccc(N(C)C)cc2)cc1	0.814
CC(=O)Nc1ccc(N=Nc2cc(C)ccc2O)cc1	3.79
CCCCC(CC)COP(=O)(OCC(CC)CCCC)OCC(CC)CCCC (stereo not drawn)	5.89

same assay, conditions: TargetSites_Mouse_Female: lung; vascular system

SMILES	Potency [mmol/kg/day]
NNCCc1ccccc1	0.0623

same assay, conditions: TargetSites_Mouse_Female: no positive results

SMILES	Potency [mmol/kg/day]
C=O	1.46
Cc1cc(-c2ccc(N)c(C)c2)ccc1N	0.1
COc1c(Cl)c(Cl)c(Cl)c(Cl)c1Cl	0.243

same assay, conditions: TargetSites_Mouse_Female: stomach

SMILES	Potency [mmol/kg/day]
CC(Cl)C=O (stereo not drawn)	0.139

same assay, conditions: TargetSites_Mouse_Female: vascular system

SMILES	Potency [mmol/kg/day]
Nc1ccccc1-c1ccccc1	5.45
